The NIST ThermoML archive (doi:10.1021/je201283n)
Numbers after ± are expanded uncertainties.

Conditions: Liquid, isochoric method

CCCCn1cc[n+](C)c1.N#CN=C=[N-] [1-butyl-3-methylimidazolium dicyanamide]
Conditions | mass density [kg/m3]
237.2 K, 1327.9 kPa | 1099.45 ± 1.6
242.14 K, 9986.9 kPa | 1099.05 ± 1.6
247.77 K, 20189 kPa | 1098.57 ± 1.6
248.09 K, 1170.5 kPa | 1092.06 ± 1.6
253.33 K, 10197 kPa | 1091.63 ± 1.6
253.33 K, 29961 kPa | 1098.11 ± 1.6
259.12 K, 20009 kPa | 1091.16 ± 1.6
259.17 K, 39931 kPa | 1097.63 ± 1.6
259.68 K, 1030 kPa | 1084.28 ± 1.5
265.12 K, 50114 kPa | 1097.14 ± 1.6
265.24 K, 10141 kPa | 1083.84 ± 1.5
265.25 K, 30347 kPa | 1090.66 ± 1.6
270.55 K, 18709 kPa | 1083.42 ± 1.5
271.07 K, 59859 kPa | 1096.65 ± 1.6
271.13 K, 39925 kPa | 1090.18 ± 1.6
273.28 K, 2767.5 kPa | 1075.98 ± 1.5
277.42 K, 50079 kPa | 1089.67 ± 1.6
277.92 K, 9955.1 kPa | 1075.61 ± 1.5
277.96 K, 30503 kPa | 1082.82 ± 1.5
277.98 K, 10008 kPa | 1075.61 ± 1.5
283.67 K, 59955 kPa | 1089.17 ± 1.6
284.14 K, 40138 kPa | 1082.33 ± 1.5
284.15 K, 1038.8 kPa | 1068.31 ± 1.5
284.23 K, 1148.3 kPa | 1068.31 ± 1.5
284.47 K, 20074 kPa | 1075.1 ± 1.5
291.05 K, 29671 kPa | 1074.21 ± 1.5
291.05 K, 30032 kPa | 1074.57 ± 1.5
291.06 K, 11299 kPa | 1067.78 ± 1.5
291.44 K, 51356 kPa | 1081.75 ± 1.5
296.97 K, 19796 kPa | 1067.32 ± 1.5
297.26 K, 60158 kPa | 1081.29 ± 1.5
298.18 K, 40270 kPa | 1073.65 ± 1.5
298.18 K, 40659 kPa | 1074.02 ± 1.5
299.21 K, 3719.1 kPa | 1059.78 ± 1.5
303.97 K, 10315 kPa | 1059.42 ± 1.5
303.97 K, 30176 kPa | 1066.78 ± 1.5
304.81 K, 50325 kPa | 1073.5 ± 1.5
310.98 K, 40117 kPa | 1066.24 ± 1.5
311.01 K, 20033 kPa | 1058.89 ± 1.5
311.34 K, 59700 kPa | 1072.99 ± 1.5
311.37 K, 676.6 kPa | 1050.98 ± 1.5
317.98 K, 49917 kPa | 1065.7 ± 1.5
318.27 K, 9911 kPa | 1050.46 ± 1.5
318.27 K, 30183 kPa | 1058.34 ± 1.5
325.32 K, 60007 kPa | 1065.14 ± 1.5
325.56 K, 39796 kPa | 1057.8 ± 1.5
326 K, 19921 kPa | 1049.89 ± 1.5
326.53 K, 876.3 kPa | 1041.71 ± 1.5
333.12 K, 50157 kPa | 1057.22 ± 1.5
333.67 K, 9918.1 kPa | 1041.19 ± 1.5
333.67 K, 30169 kPa | 1049.32 ± 1.5
340.8 K, 60149 kPa | 1056.64 ± 1.5
341.31 K, 39980 kPa | 1048.75 ± 1.5
341.77 K, 20126 kPa | 1040.59 ± 1.5
342.41 K, 781.5 kPa | 1031.94 ± 1.4
349.32 K, 50089 kPa | 1048.15 ± 1.5
349.8 K, 9629.2 kPa | 1031.41 ± 1.4
349.8 K, 30031 kPa | 1040.31 ± 1.5
